ChEMBL document CHEMBL4842345, “Design, synthesis and biological evaluation of tanshinone IIA-based analogues: Potent inhibitors of microtubule formation and angiogenesis” (Eur J Med Chem, 2021)
Converted amounts (≈) assume the structure as drawn. The source made the active and inactive calls. The calls are words filed in the database; no cut-off is given here.

Assays:
HeLa = experiment: Antiproliferative activity against human HeLa cells assessed as reduction in cell viability measured after 72 hrs by MTT assay; type: functional, cell-based
MGC-803 = experiment: Antiproliferative activity against human MGC-803 cells assessed as reduction in cell viability measured after 72 hrs by MTT assay; type: functional, cell-based; settings: MGC-803, 72 h
U-937 = experiment: Antiproliferative activity against human U-937 cells assessed as reduction in cell viability measured after 72 hrs by MTT assay; type: functional, cell-based; settings: U-937, 72 h
Tubulin (Homo sapiens) [1] = molecular target: T1, Tubulin (Homo sapiens) (UniProt P68371+Q9H4B7+P0DPH7+P68366+Q13509+Q71U36+P04350+Q3ZCM7+P07437+P68363+Q9BQE3+Q6PEY2+Q13885+Q9BVA1+Q9BUF5); experiment: Induction of microtubule distruption in human A549 cells assessed as disseminated microtubules in cytoplasm at 2.5 to 10 uM measured after 48 hrs by immunofluorescence based laser scanning confocal microscopic analysis; type: cell-based; settings: dose 2.5-10 µM
Tubulin (Homo sapiens) [2] = molecular target: T1, Tubulin (Homo sapiens); experiment: Induction of microtubule distruption in human A549 cells assessed as occurence of cell shrinkage at 2.5 to 10 uM measured after 48 hrs by immunofluorescence based laser scanning confocal microscopic analysis; settings: dose 2.5-10 µM
A549 [3] = experiment: Induction of apoptosis in human A549 cells assessed as live cells at 2.5 uM measured after 48 hrs by Annexin V-FITC/PI staining based flow cytometry analysis (Rvb= 97.1%); type: functional
A549 [4] = experiment: Induction of apoptosis in human A549 cells assessed as dead cells at 2.5 uM measured after 48 hrs by Annexin V-FITC/PI staining based flow cytometry analysis (Rvb= 0.67%); type: functional
A549 [5] = experiment: Induction of apoptosis in human A549 cells assessed as early apoptotic cells at 5 uM measured after 48 hrs by Annexin V-FITC/PI staining based flow cytometry analysis (Rvb= 0.72%); type: functional
A549 [6] = experiment: Induction of apoptosis in human A549 cells assessed as dead cells at 5 uM measured after 48 hrs by Annexin V-FITC/PI staining based flow cytometry analysis (Rvb= 0.67%); type: functional
A549 [7] = experiment: Induction of apoptosis in human A549 cells assessed as early apoptotic cells at 10 uM measured after 48 hrs by Annexin V-FITC/PI staining based flow cytometry analysis (Rvb= 0.72%); type: functional
A549 [8] = experiment: Induction of apoptosis in human A549 cells assessed as dead cells at 10 uM measured after 48 hrs by Annexin V-FITC/PI staining based flow cytometry analysis (Rvb= 0.67%); type: functional
A549 [9] = experiment: Induction of cell cycle arrest in human A549 cells assessed as increase in number of cells accumulation at G2/M phase at 10 uM measured after 48 hrs by flow cytometry analysis (Rvb= 16.72%); type: functional
A549 [10] = experiment: Induction of cell cycle arrest in human A549 cells assessed as accumulation of cells at G1 phase at 2.5 uM measured after 48 hrs by flow cytometry analysis (Rvb= 60.29%); type: functional
HUVEC [11] = experiment: Antivascular activity against HUVEC cells assessed as segment length measured after 6 hrs by imaging analysis; type: functional, cell-based; settings: Homo sapiens, dose 0.25-1 µM
HUVEC [12] = experiment: Antivascular activity against HUVEC cells assessed as reduction in area and number of meshes measured after 6 hrs by imaging analysis; type: functional, cell-based; settings: Homo sapiens, dose 0.25-1 µM
[13] = Kinetic solubility of the compound at pH 2 by nephelometry; type: physicochemical; settings: buffer, read-out: Kinetic_solubility
[14] = Intrinsic clearance in human liver microsome; type: ADME, microsomes; settings: microsomes

COc1ccc2c(c1)-c1occ(C)c1C(=O)C2=O
IC50 (HeLa): 280 nM
IC50 (MGC-803): 840 nM
IC50 (U-937): 2770 nM
Activity (Tubulin (Homo sapiens) [1]): Active
Activity (Tubulin (Homo sapiens) [2]): Active
Activity (A549 [3]): 94.5%
Activity (A549 [4]): 0.68%
Activity (A549 [5]): 10.3%
Activity (A549 [6]): 1.28%
Activity (A549 [7]): 80.2%
Activity (A549 [8]): 0.5%
Activity (A549 [9]): 32.19%
Activity (A549 [10]): 61.93%
Activity (HUVEC [11]): Dose-Dependent Effect
Activity (HUVEC [12]): Dose-Dependent Effect
solubility kinetic [13]: 250 µg/mL (≈ 1030 µM)
CLH [14]: 175 µL/min/mg
